{"source": "patent US5516790A", "about": "“Synthesis and application of alkyl-substituted dibenzofurans as antitumorigenic agents” (Texas A&M University System Technology Licensing Office, priority 1994, dated 1996)", "key": {"female rat uterus": {"test_system": "female rat uterus", "assay": "Antiestrogenic effect on uterine wet weight, immature female Sprague-Dawley rats (Example 8)", "assay_type": "in vivo"}, "estrogen receptor (ER)": {"test_system": "estrogen receptor (ER)", "assay": "Uterine estrogen receptor levels, hydroxyapatite assay (Example 8)", "assay_type": "in vivo, female Sprague-Dawley rats", "description": "A second group of animals was similarly treated with corn oil, TCDD, MCDF, or TCDD plus MCDF, all administered in corn oil at 10 ml/kg and terminated 72 hours later.\n(§1) The animals were terminated by cervical dislocation. Livers were perfused with ice-cold TEDG buffer (10 mM Tris-HCl, 1.5 mM EDTA-4Na, 1 mM dithiothreitol, 10% glycerol (v/v), pH 7.4). Following perfusion in situ, livers were removed, weighed, and homogenized in ice-cold TEDG buffer. Uteri were also removed, weighed, and homogenized in ice-cold buffer. The homogenates were then centrifuged at 800×g ([…]) for 15 minutes and the nuclear pellets were stored at -80° C. The supernatants were further centrifuged at 180,000× g for 1.5 hours. The cytosolic supernatant was also stored at -80° C. Estrogen and progesterone receptor levels were determined within 7 days.\n(§2) Estrogen (ER) and progesterone (PR) receptor levels were determined by the hydroxyapatite assay as described by Clark et al. (J. Steroid Biochem. 16:323-328, 1982) and incorporated herein by reference. […] Following the incubations, samples were counted and specific binding was calculated by subtraction of nonspecific from total binding. Assuming one steroid molecule binds to one estrogen/progesterone receptor, the number of moles of receptor can be calculated given the specific activity of the radioligand. The data presented in Tables 1 through 6 are means ± SD using at least four animals per treatment group. Significant differences were determined by analysis of variance."}, "[1]": {"test_system": "progesterone receptor (PR)", "assay": "Uterine progesterone receptor levels, hydroxyapatite assay (Example 8)", "assay_type": "in vivo, female Sprague-Dawley rats", "description": "as §1, §2"}, "[2]": {"details": "150 μmol/kg + E-2 (2 × 10 μg/rat), run B"}, "[3]": {"details": "compound alone, 150 μmol/kg (17β-estradiol: 2 × 10 μg/rat), run B"}, "[4]": {"details": "150 μmol/kg + E-2 (2 × 10 μg/rat), run A"}, "[5]": {"details": "compound alone, 150 μmol/kg (17β-estradiol: 2 × 10 μg/rat), run A"}, "[6]": {"details": "dose-response, 2 μmol/kg + 17β-estradiol (2 × 10 μg/rat)"}, "[7]": {"details": "dose-response, 10 μmol/kg + 17β-estradiol (2 × 10 μg/rat)"}, "[8]": {"details": "dose-response, 25 μmol/kg + 17β-estradiol (2 × 10 μg/rat)"}, "[9]": {"details": "dose-response, 50 μmol/kg + 17β-estradiol (2 × 10 μg/rat)"}, "[10]": {"details": "Table 2: 50 μmol/kg + E-2 (2 × 10 μg/rat)"}, "[11]": {"details": "Table 2: compound alone, 50 μmol/kg (17β-estradiol: 2 × 10 μg/rat)"}}}
{"smiles": "CCc1cc(Cl)cc2c1oc1cc(Cl)cc(Cl)c12", "note": "[6-Ethyl-1,3,8-triCDF]", "values": [{"measurement": "Uterine Wet Weight", "setting": "female rat uterus; [2]", "result": "0.226 ± 0.013", "unit": "% body wt"}, {"measurement": "Uterine Wet Weight", "setting": "female rat uterus; [3]", "result": "0.128 ± 0.007", "unit": "% body wt"}, {"measurement": "Estrogen Receptor Levels, Cytosolic", "setting": "estrogen receptor (ER); [2]", "result": "104.3 ± 77.1", "unit": "fmol/mg protein"}, {"measurement": "Estrogen Receptor Levels, Nuclear", "setting": "estrogen receptor (ER); [2]", "result": "34.9 ± 1.8", "unit": "fmol/mg protein"}, {"measurement": "Estrogen Receptor Levels, Cytosolic", "setting": "estrogen receptor (ER); [3]", "result": "98.4 ± 5.5", "unit": "fmol/mg protein"}, {"measurement": "Estrogen Receptor Levels, Nuclear", "setting": "estrogen receptor (ER); [3]", "result": "33.9 ± 1.7", "unit": "fmol/mg protein"}, {"measurement": "Progesterone Receptor Levels, Cytosolic", "setting": "[1]; [2]", "result": "1601 ± 121", "unit": "fmol/mg protein"}, {"measurement": "Progesterone Receptor Levels, Nuclear", "setting": "[1]; [2]", "result": "277 ± 19", "unit": "fmol/mg protein"}, {"measurement": "Progesterone Receptor Levels, Cytosolic", "setting": "[1]; [3]", "result": "688 ± 49", "unit": "fmol/mg protein"}, {"measurement": "Progesterone Receptor Levels, Nuclear", "setting": "[1]; [3]", "result": "243 ± 17", "unit": "fmol/mg protein"}]}
{"smiles": "Clc1cc(Cl)c2c(c1)oc1c(Cl)cc(Cl)cc12", "note": "[1,3,6,8-tetraCDF]", "values": [{"measurement": "Uterine Wet Weight", "setting": "female rat uterus; [4]", "result": "0.187 ± 0.020", "unit": "% body wt"}, {"measurement": "Uterine Wet Weight", "setting": "female rat uterus; [5]", "result": "0.123 ± 0.004", "unit": "% body wt"}, {"measurement": "Estrogen Receptor Levels, Cytosolic", "setting": "estrogen receptor (ER); [4]", "result": "75.5 ± 17.3", "unit": "fmol/mg protein"}, {"measurement": "Estrogen Receptor Levels, Nuclear", "setting": "estrogen receptor (ER); [4]", "result": "16.1 ± 2.3", "unit": "fmol/mg protein"}, {"measurement": "Estrogen Receptor Levels, Cytosolic", "setting": "estrogen receptor (ER); [5]", "result": "55.2 ± 5.6", "unit": "fmol/mg protein"}, {"measurement": "Estrogen Receptor Levels, Nuclear", "setting": "estrogen receptor (ER); [5]", "result": "18.5 ± 3.8", "unit": "fmol/mg protein"}, {"measurement": "Progesterone Receptor Levels, Cytosolic", "setting": "[1]; [4]", "result": "798 ± 83", "unit": "fmol/mg protein"}, {"measurement": "Progesterone Receptor Levels, Nuclear", "setting": "[1]; [4]", "result": "291 ± 71", "unit": "fmol/mg protein"}, {"measurement": "Progesterone Receptor Levels, Cytosolic", "setting": "[1]; [5]", "result": "571 ± 49", "unit": "fmol/mg protein"}, {"measurement": "Progesterone Receptor Levels, Nuclear", "setting": "[1]; [5]", "result": "199 ± 46", "unit": "fmol/mg protein"}]}
{"smiles": "Cc1cc2c(cc1Cl)oc1cc(Cl)c(Cl)cc12", "note": "[8-methyl-2,3,7-triCDF, 8-Methyl-2,3,7-Trichlorodibenzofuran]", "values": [{"measurement": "Uterine Wet Weight", "setting": "female rat uterus; [6]", "result": "0.192 ± 0.013", "unit": "% body wt"}, {"measurement": "Uterine Wet Weight", "setting": "female rat uterus; [7]", "result": "0.211 ± 0.019", "unit": "% body wt"}, {"measurement": "Uterine Wet Weight", "setting": "female rat uterus; [8]", "result": "0.192 ± 0.004", "unit": "% body wt"}, {"measurement": "Uterine Wet Weight", "setting": "female rat uterus; [9]", "result": "0.224 ± 0.012", "unit": "% body wt"}, {"measurement": "ED40-60 for Inhibition, ERc", "setting": "estrogen receptor (ER); cotreatment with 17β-estradiol", "result": 2, "unit": "µmol/kg"}, {"measurement": "ED40-60 for Inhibition, ERn", "setting": "estrogen receptor (ER); cotreatment with 17β-estradiol", "result": 10, "unit": "µmol/kg"}, {"measurement": "Estrogen Receptor Levels, Cytosolic", "setting": "estrogen receptor (ER); [6]", "result": "131.8 ± 6.6", "unit": "fmol/mg protein"}, {"measurement": "Estrogen Receptor Levels, Nuclear", "setting": "estrogen receptor (ER); [6]", "result": "90.2 ± 5.4", "unit": "fmol/mg protein"}, {"measurement": "Estrogen Receptor Levels, Cytosolic", "setting": "estrogen receptor (ER); [7]", "result": "125.3 ± 6.3", "unit": "fmol/mg protein"}, {"measurement": "Estrogen Receptor Levels, Nuclear", "setting": "estrogen receptor (ER); [7]", "result": "76.8 ± 3.8", "unit": "fmol/mg protein"}, {"measurement": "Estrogen Receptor Levels, Cytosolic", "setting": "estrogen receptor (ER); [8]", "result": "117.5 ± 5.9", "unit": "fmol/mg protein"}, {"measurement": "Estrogen Receptor Levels, Nuclear", "setting": "estrogen receptor (ER); [8]", "result": "72.8 ± 3.6", "unit": "fmol/mg protein"}, {"measurement": "Estrogen Receptor Levels, Cytosolic", "setting": "estrogen receptor (ER); [9]", "result": "107.1 ± 5.4", "unit": "fmol/mg protein"}, {"measurement": "Estrogen Receptor Levels, Nuclear", "setting": "estrogen receptor (ER); [9]", "result": "67.3 ± 4.0", "unit": "fmol/mg protein"}, {"measurement": "ED40-60 for Inhibition, PRc", "setting": "[1]; cotreatment with 17β-estradiol", "result": 2, "unit": "µmol/kg"}, {"measurement": "ED40-60 for Inhibition, PRn", "setting": "[1]; cotreatment with 17β-estradiol", "result": 10, "unit": "µmol/kg"}, {"measurement": "Progesterone Receptor Levels, Cytosolic", "setting": "[1]; [6]", "result": "1673 ± 117", "unit": "fmol/mg protein"}, {"measurement": "Progesterone Receptor Levels, Nuclear", "setting": "[1]; [6]", "result": "835 ± 50", "unit": "fmol/mg protein"}, {"measurement": "Progesterone Receptor Levels, Cytosolic", "setting": "[1]; [7]", "result": "1596 ± 112", "unit": "fmol/mg protein"}, {"measurement": "Progesterone Receptor Levels, Nuclear", "setting": "[1]; [7]", "result": "685 ± 62", "unit": "fmol/mg protein"}, {"measurement": "Progesterone Receptor Levels, Cytosolic", "setting": "[1]; [8]", "result": "1461 ± 102", "unit": "fmol/mg protein"}, {"measurement": "Progesterone Receptor Levels, Nuclear", "setting": "[1]; [8]", "result": "631 ± 37", "unit": "fmol/mg protein"}, {"measurement": "Progesterone Receptor Levels, Cytosolic", "setting": "[1]; [9]", "result": "856 ± 60", "unit": "fmol/mg protein"}, {"measurement": "Progesterone Receptor Levels, Nuclear", "setting": "[1]; [9]", "result": "605 ± 66", "unit": "fmol/mg protein"}]}
{"smiles": "Cc1cc(Cl)c2oc3cc(Cl)cc(Cl)c3c2c1", "note": "[8-Methyl-1,3,6-triCDF]", "values": [{"measurement": "Uterine Wet Weight", "setting": "female rat uterus; [4]", "result": "0.212 ± 0.021", "unit": "% body wt"}, {"measurement": "Uterine Wet Weight", "setting": "female rat uterus; [5]", "result": "0.089 ± 0.008", "unit": "% body wt"}, {"measurement": "Estrogen Receptor Levels, Cytosolic", "setting": "estrogen receptor (ER); [4]", "result": "65.9 ± 77.5", "unit": "fmol/mg protein"}, {"measurement": "Estrogen Receptor Levels, Nuclear", "setting": "estrogen receptor (ER); [4]", "result": "20.8 ± 70.5", "unit": "fmol/mg protein"}, {"measurement": "Estrogen Receptor Levels, Cytosolic", "setting": "estrogen receptor (ER); [5]", "result": "54.1 ± 6.2", "unit": "fmol/mg protein"}, {"measurement": "Estrogen Receptor Levels, Nuclear", "setting": "estrogen receptor (ER); [5]", "result": "38.1 ± 5.8", "unit": "fmol/mg protein"}, {"measurement": "Progesterone Receptor Levels, Cytosolic", "setting": "[1]; [4]", "result": "838 ± 66", "unit": "fmol/mg protein"}, {"measurement": "Progesterone Receptor Levels, Nuclear", "setting": "[1]; [4]", "result": "203 ± 35", "unit": "fmol/mg protein"}, {"measurement": "Progesterone Receptor Levels, Cytosolic", "setting": "[1]; [5]", "result": "686 ± 77", "unit": "fmol/mg protein"}, {"measurement": "Progesterone Receptor Levels, Nuclear", "setting": "[1]; [5]", "result": "188 ± 29", "unit": "fmol/mg protein"}]}
{"smiles": "Cc1cc(Cl)cc2c1oc1cc(Cl)c(Cl)cc12", "note": "[6-Methyl-2,3,8-triCDF, 6-methyl-2,3,8-trichlorodibenzofuran]", "values": [{"measurement": "Uterine Wet Weight", "setting": "female rat uterus; [10]", "result": "0.204 ± 0.020", "unit": "% body wt"}, {"measurement": "Uterine Wet Weight", "setting": "female rat uterus; [11]", "result": "0.125 ± 0.024", "unit": "% body wt"}, {"measurement": "Estrogen Receptor Levels, Cytosolic", "setting": "estrogen receptor (ER); [10]", "result": "105.3 ± 12.2", "unit": "fmol/mg protein"}, {"measurement": "Estrogen Receptor Levels, Nuclear", "setting": "estrogen receptor (ER); [10]", "result": "70.8 ± 8.1", "unit": "fmol/mg protein"}, {"measurement": "Estrogen Receptor Levels, Cytosolic", "setting": "estrogen receptor (ER); [11]", "result": "84.3 ± 9.3", "unit": "fmol/mg protein"}, {"measurement": "Estrogen Receptor Levels, Nuclear", "setting": "estrogen receptor (ER); [11]", "result": "55.8 ± 7.1", "unit": "fmol/mg protein"}, {"measurement": "Progesterone Receptor Levels, Cytosolic", "setting": "[1]; [10]", "result": "1062 ± 121", "unit": "fmol/mg protein"}, {"measurement": "Progesterone Receptor Levels, Nuclear", "setting": "[1]; [10]", "result": "622 ± 71", "unit": "fmol/mg protein"}, {"measurement": "Progesterone Receptor Levels, Cytosolic", "setting": "[1]; [11]", "result": "356 ± 65", "unit": "fmol/mg protein"}, {"measurement": "Progesterone Receptor Levels, Nuclear", "setting": "[1]; [11]", "result": "395 ± 52", "unit": "fmol/mg protein"}]}
